Test results reported in patent publication US8598170B2, “Dual-acting oxazole antihypertensive agents” (Theravance, Inc., priority 2009, dated 2013).

Columns and labels:
human AT1 receptor = biological target: T1, human AT1 receptor (Homo sapiens, UniProt P30556); assay: AT1 radioligand binding assay ([Eu]AngII displacement, CHO-K1 membranes); conditions: read-out: pKi at the AT1 receptor (converted)
T1 construct: expressed in transfected cells; host or cells: CHO-K1
T1 sequence (P30556 1-359): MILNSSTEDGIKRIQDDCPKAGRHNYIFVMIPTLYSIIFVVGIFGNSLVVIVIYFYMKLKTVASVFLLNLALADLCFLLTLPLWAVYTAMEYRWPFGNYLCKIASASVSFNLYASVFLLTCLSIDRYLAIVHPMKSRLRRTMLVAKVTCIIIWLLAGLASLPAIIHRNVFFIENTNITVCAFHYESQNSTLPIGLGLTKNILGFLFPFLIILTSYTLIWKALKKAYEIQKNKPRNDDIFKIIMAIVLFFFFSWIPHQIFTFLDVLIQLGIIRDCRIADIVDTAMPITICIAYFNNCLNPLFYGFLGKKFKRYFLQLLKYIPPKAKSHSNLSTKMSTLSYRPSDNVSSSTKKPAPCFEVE
Experimental: These in vitro assays were used to assess the ability of test compounds to bind to the AT1 and the AT2 receptors.
Chinese hamster ovary (CHO-K1) derived cell lines stably expressing the cloned human AT1 or AT2 receptors, respectively, were grown in HAM's-F 12 medium supplemented with 10% fetal bovine serum, 10 μg/ml penicillin/streptomycin, and […] in a 5% CO2 humidified incubator at 37° C. AT2 receptor expressing cells were grown in the additional presence of 100 nM PD123,319 (AT2 antagonist). When cultures reached 80-95% confluence, the cells were washed thoroughly in PBS and lifted with 5 mM EDTA. Cells were pelleted by centrifugation and snap frozen in MeOH-dry ice and stored at −80° C. until further use.
For membrane preparation, cell pellets were resuspended in lysis buffer (25 mM Tris/HCl pH 7.5 at 4° C., 1 mM EDTA, and one tablet of Complete Protease Inhibitor Cocktail Tablets with 2 mM EDTA per 50 mL buffer (Roche cat. #1697498, Roche Molecular Biochemicals, Indianapolis, Ind.)) and homogenized using a tight-fitting Dounce glass homogenizer (10 strokes) on ice. The homogenate was centrifuged at 1000×g, the supernatant was collected and centrifuged at 20,000×g. […] Protein concentration of the membrane suspension was determined by the method described in Bradford (1976) Anal Biochem. 72:248-54. […]

NEP enzyme = biological target: T2, NEP enzyme (Homo sapiens, UniProt P08473); assay: In vitro NEP enzyme inhibition assay (fluorogenic peptide substrate); type: biochemical; conditions: read-out: pIC50 for the NEP enzyme (converted)
T2 construct: purchased R&D Systems, Minneapolis, Minn; 1182-ZN
Experimental: The inhibitory activities of compounds at human and rat NEP and human ACE were determined using in vitro assays as described below.
Rat NEP was prepared from the kidneys of adult Sprague Dawley rats. Whole kidneys were washed in cold PBS and brought up in ice-cold lysis buffer (1% Triton X-114, 150 mM NaCl, 50 mM Tris pH 7.5; Bordier (1981) J. Biol. Chem. 256:1604-1607) in a ratio of 5 mL of buffer for every gram of kidney. Samples were homogenized using a polytron hand held tissue grinder on ice. Homogenates were centrifuged at 1000×g in a swinging bucket rotor for 5 minutes at 3° C. The pellet was resuspended in 20 mL of ice cold lysis buffer and incubated on ice for 30 minutes. […] Protein concentrations were quantitated using a BCA detection system with BSA as a standard. […]
The assays were performed in 384-well white opaque plates at room temperature using the respective fluorogenic peptides at a concentration of 10 μM in assay buffer (50 mM Tris/HCl at 25° C., 100 mM NaCl, 0.01% Tween-20, 1 μM Zn, 0.025% BSA). […] The rat NEP enzyme preparation was used at a concentration that yielded quantitative proteolysis of 3 μM of Mca-RRL within 20 minutes at room temperature. […]
Plates were read on a fluorometer with excitation and emission wavelengths set to 320 nm and 405 nm, respectively. […]

T2 sequence (P08473 52-750 limits assumed): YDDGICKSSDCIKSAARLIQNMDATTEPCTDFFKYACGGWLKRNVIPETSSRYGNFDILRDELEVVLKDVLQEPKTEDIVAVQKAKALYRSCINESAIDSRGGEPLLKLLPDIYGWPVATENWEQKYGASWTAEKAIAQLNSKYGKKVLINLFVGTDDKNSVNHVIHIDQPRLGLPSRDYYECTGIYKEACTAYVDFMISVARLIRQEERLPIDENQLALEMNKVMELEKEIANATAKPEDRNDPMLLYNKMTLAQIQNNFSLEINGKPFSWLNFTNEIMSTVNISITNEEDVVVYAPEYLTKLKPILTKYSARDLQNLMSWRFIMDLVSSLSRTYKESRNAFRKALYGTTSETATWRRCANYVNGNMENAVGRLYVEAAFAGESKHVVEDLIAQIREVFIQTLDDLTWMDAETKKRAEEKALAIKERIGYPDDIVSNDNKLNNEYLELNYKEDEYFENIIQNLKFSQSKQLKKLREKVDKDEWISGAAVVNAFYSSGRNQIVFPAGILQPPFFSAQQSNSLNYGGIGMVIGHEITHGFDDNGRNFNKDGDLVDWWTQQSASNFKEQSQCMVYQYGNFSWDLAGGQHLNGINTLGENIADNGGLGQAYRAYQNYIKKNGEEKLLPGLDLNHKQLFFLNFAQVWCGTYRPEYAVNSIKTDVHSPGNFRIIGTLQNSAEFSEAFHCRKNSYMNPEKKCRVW

Ki (human AT1 receptor): < 31.6 nM
IC50 (NEP enzyme): < 1000 nM
Structure (SMILES): CCCc1oc(C(=O)N[C@H](Cc2ccccc2)[C@@H](O)C(=O)O)nc1Cc1ccc(-c2ccccc2-c2nnn[nH]2)cc1 [Example 1, (2R,3R)-2-Hydroxy-4-phenyl-3-({5-propyl-4-[2′-(1H-tetrazol-5-yl)-biphenyl-4-ylmethyl]-oxazole-2-carbonyl}amino)butyric Acid]
